Results from ChEMBL document CHEMBL5356985, “Development of trisubstituted thiophene-3-arboxamide selenide derivatives as novel EGFR kinase inhibitors with cytotoxic activity” (RSC Med Chem, 2023).
The source made the active and inactive calls. No cut-off for these calls is given here.

How the values were obtained:
[1] = target: Epidermal growth factor receptor (Homo sapiens, UniProt P00533); assay: Inhibition of EGFR (unknown origin) using poly E4Y1 and ATP as substrate incubated for 60 mins by ADP-Glo kinase assay
Epidermal growth factor receptor, sequence (P00533 whole entry): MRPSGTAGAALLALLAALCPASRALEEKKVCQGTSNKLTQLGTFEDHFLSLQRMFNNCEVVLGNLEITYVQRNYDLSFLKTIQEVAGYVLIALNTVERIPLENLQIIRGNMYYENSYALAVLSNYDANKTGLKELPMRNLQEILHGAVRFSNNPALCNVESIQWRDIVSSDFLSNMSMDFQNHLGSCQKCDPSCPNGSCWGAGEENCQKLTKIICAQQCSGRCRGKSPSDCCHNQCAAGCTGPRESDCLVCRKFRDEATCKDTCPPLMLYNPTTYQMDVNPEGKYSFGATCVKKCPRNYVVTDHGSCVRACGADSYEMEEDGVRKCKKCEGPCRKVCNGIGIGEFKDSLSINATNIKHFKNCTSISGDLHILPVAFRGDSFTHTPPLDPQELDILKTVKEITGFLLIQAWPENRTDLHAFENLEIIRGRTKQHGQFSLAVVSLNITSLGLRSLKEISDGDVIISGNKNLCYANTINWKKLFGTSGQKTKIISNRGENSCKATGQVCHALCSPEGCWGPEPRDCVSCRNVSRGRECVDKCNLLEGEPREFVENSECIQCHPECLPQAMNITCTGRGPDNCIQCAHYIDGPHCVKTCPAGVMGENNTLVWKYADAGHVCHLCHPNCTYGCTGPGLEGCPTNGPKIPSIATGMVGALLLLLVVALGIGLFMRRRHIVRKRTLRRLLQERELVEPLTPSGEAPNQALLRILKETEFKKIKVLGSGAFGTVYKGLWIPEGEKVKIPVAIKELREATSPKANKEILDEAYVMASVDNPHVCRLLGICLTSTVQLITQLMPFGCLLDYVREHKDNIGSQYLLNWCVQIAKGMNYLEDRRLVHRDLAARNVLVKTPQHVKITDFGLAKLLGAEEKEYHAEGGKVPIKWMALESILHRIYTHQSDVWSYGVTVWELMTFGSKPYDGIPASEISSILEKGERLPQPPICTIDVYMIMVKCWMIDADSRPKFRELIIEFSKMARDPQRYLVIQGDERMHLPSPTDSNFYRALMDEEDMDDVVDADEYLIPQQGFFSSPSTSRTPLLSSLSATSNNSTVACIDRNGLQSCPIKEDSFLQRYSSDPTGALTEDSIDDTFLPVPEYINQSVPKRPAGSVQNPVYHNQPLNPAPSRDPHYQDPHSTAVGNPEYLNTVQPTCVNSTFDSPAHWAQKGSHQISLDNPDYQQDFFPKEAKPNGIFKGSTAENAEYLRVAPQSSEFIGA

SK-MEL-28 [2] = assay: Antiproliferative activity against human SK-MEL-28 cells assessed as cell growth inhibition incubated for 48 hrs by MTT assay; format: functional, cell-based; conditions: SK-MEL-28, 48 h
HCT-116 [3] = assay: Antiproliferative activity against human HCT-116 cells assessed as cell growth inhibition incubated for 48 hrs by MTT assay; format: functional, cell-based; conditions: HCT-116, 48 h
HCT-116 [4] = assay: Induction of intracellular ROS generation in human HCT-116 cells at 1.6 to 3.2 uM incubated for 48 hrs by DCFDA staining based fluorescence analysis; format: functional, cell-based; conditions: dose 1.6-3.2 µM
SK-MEL-28 [5] = assay: Antiproliferative activity against human SK-MEL-28 cells assessed as cell growth inhibition at 20 uM incubated for 48 hrs by MTT assay; format: functional
HCT-116 [6] = assay: Induction of apoptosis in human HCT-116 cells assessed as late apoptotic cells at 6.4 uM incubated for 48 hrs by annexin V-FITC and propidium iodide staining based flow cytometry (Rvb=13.51%); format: functional
HCT-116 [7] = assay: Induction of intracellular ROS generation in human HCT-116 cells at 6.4 uM incubated for 48 hrs by DCFDA staining based fluorescence analysis; format: functional, cell-based
HCT-116 [8] = assay: Induction of apoptosis in human HCT-116 cells assessed as reduction in number of viable cells at 1.6 to 6.4 uM incubated for 48 hrs by phase-contrast microscopy; format: functional, cell-based; conditions: dose 1.6-6.4 µM
HCT-116 [9] = assay: Induction of apoptosis in human HCT-116 cells assessed as cell shrinkage at 1.6 to 6.4 uM incubated for 48 hrs by phase-contrast microscopy; format: functional, cell-based; conditions: dose 1.6-6.4 µM
MCF7 [10] = assay: Antiproliferative activity against human MCF7 cells assessed as cell growth inhibition at 20 uM incubated for 48 hrs by MTT assay; format: functional
HCT-116 [11] = assay: Anti-metastatic activity against human HCT-116 cells assessed as inhibition of cell migration by measuring wound width at 6.4 uM and measured at 0 hrs by scratch wound healing assay (Rvb=287.904 micrometer); format: functional
HCT-116 [12] = assay: Induction of apoptosis in human HCT-116 cells assessed as necrotic cells at 6.4 uM incubated for 48 hrs by annexin V-FITC and propidium iodide staining based flow cytometry (Rvb=13.42%); format: functional
HCT-116 [13] = assay: Anti-metastatic activity against human HCT-116 cells assessed as inhibition of cell migration by measuring wound width at 6.4 uM and measured at 48 hrs by scratch wound healing assay (Rvb=179.681 micrometer); format: functional
HCT-116 [14] = assay: Induction of apoptosis in human HCT-116 cells assessed as late apoptotic cells at 1.6 uM incubated for 48 hrs by annexin V-FITC and propidium iodide staining based flow cytometry (Rvb=13.51%); format: functional
HCT-116 [15] = assay: Anti-metastatic activity against human HCT-116 cells assessed as inhibition of cell migration by measuring wound width at 3.2 uM and measured at 0 hrs by scratch wound healing assay (Rvb=287.904 micrometer); format: functional
HCT-116 [16] = assay: Antiproliferative activity against human HCT-116 cells assessed as cell growth inhibition at 20 uM incubated for 48 hrs by MTT assay; format: functional
[17] = Cytotoxicity against human HaCaT cells assessed as cell growth inhibition incubated for 48 hrs by MTT assay; format: toxicity, cell-based
HCT-116 [18] = assay: Induction of apoptosis in human HCT-116 cells assessed as increase in necrotic cells by measuring ratio of orange-red fluorescence at 1.6 to 6.4 uM incubated for 48 hrs by Acridine orange/ethidium bromide staining based fluorescence microscopy; format: functional, cell-based; conditions: dose 1.6-6.4 µM
HCT-116 [19] = assay: Induction of apoptosis in human HCT-116 cells assessed as increase in late apoptotic cells by measuring ratio of orange-red fluorescence at 1.6 to 6.4 uM incubated for 48 hrs by Acridine orange/ethidium bromide staining based fluorescence microscopy; format: functional, cell-based; conditions: dose 1.6-6.4 µM
HCT-116 [20] = assay: Induction of apoptosis in human HCT-116 cells assessed as chromatin condensation at 1.6 to 6.4 uM incubated for 48 hrs by DAPI staining based fluorescence microscopy; format: functional, cell-based; conditions: dose 1.6-6.4 µM
A549 [21] = assay: Antiproliferative activity against human A549 cells assessed as cell growth inhibition incubated for 48 hrs by MTT assay; format: functional, cell-based; conditions: A549, 48 h
HCT-116 [22] = assay: Induction of apoptosis in human HCT-116 cells assessed as cell shape alteration at 1.6 to 6.4 uM incubated for 48 hrs by phase-contrast microscopy; format: functional, cell-based; conditions: dose 1.6-6.4 µM
HCT-116 [23] = assay: Induction of apoptosis in human HCT-116 cells assessed as live cells at 3.2 uM incubated for 48 hrs by annexin V-FITC and propidium iodide staining based flow cytometry (Rvb=68.64%); format: functional
HCT-116 [24] = assay: Induction of mitochondrial transmembrane potential loss in human HCT-116 cells assessed as reduction in red/green fluorescence ratio at 1.6 to 3.2 uM incubated for 48 hrs by JC-1 staining based fluorescence microscopic analysis; format: functional, cell-based; conditions: dose 1.6-3.2 µM
HCT-116 [25] = assay: Induction of apoptosis in human HCT-116 cells assessed as late apoptotic cells at 3.2 uM incubated for 48 hrs by annexin V-FITC and propidium iodide staining based flow cytometry (Rvb=13.51%); format: functional
HCT-116 [26] = assay: Induction of apoptosis in human HCT-116 cells assessed as horse shoe-shaped nuclear morphological change at 1.6 to 6.4 uM incubated for 48 hrs by DAPI staining based fluorescence microscopy; format: functional, cell-based; conditions: dose 1.6-6.4 µM
HCT-116 [27] = assay: Induction of mitochondrial transmembrane potential loss in human HCT-116 cells assessed as reduction in red/green fluorescence ratio at 6.4 uM incubated for 48 hrs by JC-1 staining based fluorescence microscopic analysis; format: functional, cell-based
HCT-116 [28] = assay: Induction of apoptosis in human HCT-116 cells assessed as live cells at 6.4 uM incubated for 48 hrs by annexin V-FITC and propidium iodide staining based flow cytometry (Rvb=68.64%); format: functional
HCT-116 [29] = assay: Anti-metastatic activity against human HCT-116 cells assessed as inhibition of cell migration by measuring wound width at 1.6 uM and measured at 48 hrs by scratch wound healing assay (Rvb=179.681 micrometer); format: functional
HCT-116 [30] = assay: Anti-metastatic activity against human HCT-116 cells assessed as inhibition of cell migration by measuring wound width at 3.2 uM and measured at 48 hrs by scratch wound healing assay (Rvb=179.681 micrometer); format: functional
HCT-116 [31] = assay: Induction of apoptosis in human HCT-116 cells assessed as necrotic cells at 3.2 uM incubated for 48 hrs by annexin V-FITC and propidium iodide staining based flow cytometry (Rvb=13.42%); format: functional
HCT-116 [32] = assay: Induction of apoptosis in human HCT-116 cells assessed as pyknotic/fragmented bright nucleus at 1.6 to 6.4 uM incubated for 48 hrs by DAPI staining based fluorescence microscopy; format: functional, cell-based; conditions: dose 1.6-6.4 µM
MCF7 [33] = assay: Antiproliferative activity against human MCF7 cells assessed as cell growth inhibition incubated for 48 hrs by MTT assay; format: functional, cell-based; conditions: MCF7, 48 h
HCT-116 [34] = assay: Induction of apoptosis in human HCT-116 cells assessed as live cells at 1.6 uM incubated for 48 hrs by annexin V-FITC and propidium iodide staining based flow cytometry (Rvb=68.64%); format: functional
HCT-116 [35] = assay: Induction of apoptosis in human HCT-116 cells assessed as necrotic cells at 1.6 uM incubated for 48 hrs by annexin V-FITC and propidium iodide staining based flow cytometry (Rvb=13.42%); format: functional
HCT-116 [36] = assay: Induction of apoptosis in human HCT-116 cells assessed as early apoptotic cells at 1.6 uM incubated for 48 hrs by annexin V-FITC and propidium iodide staining based flow cytometry (Rvb=4.44%); format: functional
A549 [37] = assay: Antiproliferative activity against human A549 cells assessed as cell growth inhibition at 20 uM incubated for 48 hrs by MTT assay; format: functional
HCT-116 [38] = assay: Anti-metastatic activity against human HCT-116 cells assessed as inhibition of cell migration by measuring wound width at 1.6 uM and measured at 0 hrs by scratch wound healing assay (Rvb=287.904 micrometer); format: functional
HCT-116 [39] = assay: Anti-metastatic activity against human HCT-116 cells assessed as inhibition of cell migration at 1.6 to 6.4 uM and measured at 48 hrs by scratch wound healing assay; format: functional, cell-based; conditions: dose 1.6-6.4 µM
HCT-116 [40] = assay: Induction of apoptosis in human HCT-116 cells assessed as early apoptotic cells at 6.4 uM incubated for 48 hrs by annexin V-FITC and propidium iodide staining based flow cytometry (Rvb=4.44%); format: functional
HCT-116 [41] = assay: Induction of apoptosis in human HCT-116 cells assessed as early apoptotic cells at 3.2 uM incubated for 48 hrs by annexin V-FITC and propidium iodide staining based flow cytometry (Rvb=4.44%); format: functional

- IC50 [1]: 0.0944 µM
- IC50 (SK-MEL-28 [2]): 8.81 µM
- IC50 (HCT-116 [3]): 3.2 µM
- IC50 (A549 [21]): 7.86 µM
- IC50 (MCF7 [33]): 8.06 µM
Structure (SMILES): Cc1sc([Se]c2sc(C)c(-c3cccc(Br)c3)c2C(=O)NC(CO)C(=O)N2CCCC2)c(C(=O)NC(CO)C(=O)N2CCCC2)c1-c1cccc(Br)c1 (stereo unspecified)
- Activity (HCT-116 [4]): Dose-Dependent Effect
- inhibition at 20 µM (SK-MEL-28 [5]): 78%
- Activity (HCT-116 [6]): 88.93%
- Activity (HCT-116 [7]): Active
- Activity (HCT-116 [8]): Dose-Dependent Effect
- Activity (HCT-116 [9]): Dose-Dependent Effect
- inhibition at 20 µM (MCF7 [10]): 90%
- Activity (HCT-116 [11]): 275.298 um
- Activity (HCT-116 [12]): 5.47%
- Activity (HCT-116 [13]): 267.94 um
- Activity (HCT-116 [14]): 27.98%
- Activity (HCT-116 [15]): 296.312 um
- inhibition at 20 µM (HCT-116 [16]): 75%
- IC50 at 48 h [17]: 24 µM
- Activity (HCT-116 [18]): Dose-Dependent Effect
- Activity (HCT-116 [19]): Dose-Dependent Effect
- Activity (HCT-116 [20]): Active
- Activity (HCT-116 [22]): Dose-Dependent Effect
- Activity (HCT-116 [23]): 32.12%
- Activity (HCT-116 [24]): Dose-Dependent Effect
- Activity (HCT-116 [25]): 43.71%
- Activity (HCT-116 [26]): Active
- Activity (HCT-116 [27]): Active
- Activity (HCT-116 [28]): 2.56%
- Activity (HCT-116 [29]): 235.37 um
- Activity (HCT-116 [30]): 276.354 um
- Activity (HCT-116 [31]): 12.61%
- Activity (HCT-116 [32]): Active
- Activity (HCT-116 [34]): 52.95%
- Activity (HCT-116 [35]): 10.1%
- Activity (HCT-116 [36]): 8.97%
- inhibition at 20 µM (A549 [37]): 90%
- Activity (HCT-116 [38]): 257.433 um
- Activity (HCT-116 [39]): Dose-Dependent Effect
- Activity (HCT-116 [40]): 3.04%
- Activity (HCT-116 [41]): 11.75%
